The results in this text go back to patent US20230279001A1, “IMIDAZO[1,2-A]PYRIDINE COMPOUNDS FOR THE TREATMENT OF AUTOIMMUNE DISEASE” (Hoffmann-La Roche Inc., priority 2020, published 2023).

For assay [1], the target named is human TLR7 (Homo sapiens (Human), UniProt Q9NYK1). Put plainly: HEK293-Blue-hTLR-7 cells assay. It is filed as cell-based. The following applies: HEK293-Blue-hTLR7 cells, R848 stimulation, 20 hrs, SEAP reporter; read-out: HEK/hTLR7 IC50. The source says: (§1) A stable HEK293-Blue-hTLR-7 cell line was purchased from InvivoGen (Cat. #: hkb-htlr7, San Diego, Calif., USA). These cells were originally designed for studying the stimulation of human TLR7 by monitoring the activation of NF-κB. A SEAP (secreted embryonic alkaline phosphatase) reporter gene was placed under the control of the IFN-β minimal promoter fused to five NF-κB and AP-1-binding sites. The SEAP was induced by activating NF-κB and AP-1 via stimulating HEK-Blue hTLR7 cells with TLR7 ligands. Therefore the reporter expression was declined by TLR7 antagonist under the stimulation of a ligand, such as R848 (Resiquimod), for incubation of 20 hrs. The cell culture supernatant SEAP reporter activity was determined using QUANTI-Blue™ kit (Cat. #: rep-qb1, Invivogen, San Diego, Ca, USA) at a wavelength of 640 nm, a detection medium that turns purple or blue in the presence of alkaline phosphatase.
Chain of human TLR7 (Q9NYK1 27-1049): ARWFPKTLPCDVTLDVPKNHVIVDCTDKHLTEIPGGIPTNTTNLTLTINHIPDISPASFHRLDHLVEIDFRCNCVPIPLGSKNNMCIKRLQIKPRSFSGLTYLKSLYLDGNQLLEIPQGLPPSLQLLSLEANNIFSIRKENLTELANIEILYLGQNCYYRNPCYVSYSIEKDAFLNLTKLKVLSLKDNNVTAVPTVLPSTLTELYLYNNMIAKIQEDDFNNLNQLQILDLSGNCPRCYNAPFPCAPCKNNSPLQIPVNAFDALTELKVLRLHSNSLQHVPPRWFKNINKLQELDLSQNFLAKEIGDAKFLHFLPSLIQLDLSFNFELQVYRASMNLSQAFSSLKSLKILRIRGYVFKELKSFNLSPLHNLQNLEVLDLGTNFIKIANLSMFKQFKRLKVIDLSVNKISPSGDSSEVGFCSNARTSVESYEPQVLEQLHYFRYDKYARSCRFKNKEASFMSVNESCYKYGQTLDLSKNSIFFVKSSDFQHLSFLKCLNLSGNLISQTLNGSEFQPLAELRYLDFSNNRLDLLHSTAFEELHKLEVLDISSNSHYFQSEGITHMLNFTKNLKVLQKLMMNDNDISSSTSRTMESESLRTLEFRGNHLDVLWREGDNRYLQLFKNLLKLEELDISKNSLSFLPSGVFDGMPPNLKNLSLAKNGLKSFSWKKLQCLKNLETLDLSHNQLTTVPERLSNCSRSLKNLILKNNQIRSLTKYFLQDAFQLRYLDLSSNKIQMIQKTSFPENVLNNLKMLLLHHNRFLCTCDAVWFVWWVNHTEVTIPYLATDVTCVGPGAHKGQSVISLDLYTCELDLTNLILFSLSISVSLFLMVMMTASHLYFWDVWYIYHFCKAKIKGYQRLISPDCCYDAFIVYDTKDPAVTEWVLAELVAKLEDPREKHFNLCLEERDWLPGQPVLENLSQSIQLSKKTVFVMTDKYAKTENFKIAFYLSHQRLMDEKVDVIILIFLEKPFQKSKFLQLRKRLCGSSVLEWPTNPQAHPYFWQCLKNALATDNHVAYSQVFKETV
(§2) HEK293-Blue-hTLR7 cells were incubated at a density of 250,000˜450,000 cells/mL in a volume of 170 μL in a 96-well plate in Dulbecco's Modified Eagle's medium (DMEM) containing 4.5 g/L glucose, 50 U/mL penicillin, […], […], 2 mM L-glutamine, 10% (v/v) heat-inactivated fetal bovine serum with addition of 20 μL test compound in a serial dilution in the presence of final DMSO at 1% and 10 μL of 20 uM R848 in above DMEM, perform incubation under 37° C. in a CO2 incubator for 20 hrs. Then 20 μL of the supernatant from each well was incubated with 180 μL Quanti-blue substrate solution at 37° C. for 2 hrs and the absorbance was read at 620-655 nm using a spectrophotometer. The signaling pathway that TLR7 activation leads to downstream NF-κB activation has been widely accepted, and therefore similar reporter assay was modified for evaluating TLR7 antagonist.

The target in assay [2] is human TLR8 (Homo sapiens (Human), UniProt Q9NR97). The assay is described as follows: HEK293-Blue-hTLR-8 cells assay. It is filed as cell-based. To be noted: HEK293-Blue-hTLR8 cells, R848 stimulation, 20 hrs, SEAP reporter; read-out: HEK/hTLR8 IC50.
Chain of human TLR8 (Q9NR97 27-1041): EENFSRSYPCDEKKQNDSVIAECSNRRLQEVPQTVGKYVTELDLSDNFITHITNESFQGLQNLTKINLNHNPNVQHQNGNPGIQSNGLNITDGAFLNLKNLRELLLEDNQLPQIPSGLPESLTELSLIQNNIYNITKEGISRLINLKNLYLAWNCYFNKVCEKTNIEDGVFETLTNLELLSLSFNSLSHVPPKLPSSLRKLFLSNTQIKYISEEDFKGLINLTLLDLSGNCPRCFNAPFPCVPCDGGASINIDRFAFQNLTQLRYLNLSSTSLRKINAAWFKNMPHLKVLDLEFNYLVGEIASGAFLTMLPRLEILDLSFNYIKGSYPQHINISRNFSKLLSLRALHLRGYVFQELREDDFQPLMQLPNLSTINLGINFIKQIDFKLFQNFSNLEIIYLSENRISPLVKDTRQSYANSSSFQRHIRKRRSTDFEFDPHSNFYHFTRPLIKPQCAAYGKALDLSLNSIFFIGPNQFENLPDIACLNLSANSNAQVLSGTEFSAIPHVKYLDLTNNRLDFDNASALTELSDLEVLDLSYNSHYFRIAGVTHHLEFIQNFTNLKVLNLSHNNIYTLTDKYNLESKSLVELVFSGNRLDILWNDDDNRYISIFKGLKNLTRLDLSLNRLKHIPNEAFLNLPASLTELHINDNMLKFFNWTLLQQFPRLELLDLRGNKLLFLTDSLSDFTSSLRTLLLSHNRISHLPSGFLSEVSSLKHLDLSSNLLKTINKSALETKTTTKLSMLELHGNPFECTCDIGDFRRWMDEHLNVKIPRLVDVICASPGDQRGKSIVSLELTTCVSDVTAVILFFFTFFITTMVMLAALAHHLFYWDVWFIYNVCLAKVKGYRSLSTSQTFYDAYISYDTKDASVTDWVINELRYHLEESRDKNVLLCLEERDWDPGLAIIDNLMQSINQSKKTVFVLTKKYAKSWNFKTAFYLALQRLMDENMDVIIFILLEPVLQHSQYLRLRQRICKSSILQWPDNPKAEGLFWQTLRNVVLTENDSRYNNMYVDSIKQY
Source text: as §1, with “HEK293-Blue-hTLR-8” for “HEK293-Blue-hTLR-7”, “hkb-htlr8,” for “hkb-htlr7,”, “TLR8” for “TLR7”, “hTLR8” for “hTLR7”, “R848,” for “R848 (Resiquimod),”, “rep-gb1,” for “rep-qb1,”
as §2, with “HEK293-Blue-hTLR8 cells were” for “HEK293-Blue-hTLR7 cells were”, “μL of 60 uM R848” for “μL of 20 uM R848”, “read at 620655 nm using” for “read at 620-655 nm using”, “pathway that TLR8 activation leads” for “pathway that TLR7 activation leads”, “for evaluating TLR8 antagonist.” for “for evaluating TLR7 antagonist.”

In assay [3] the target is TLR9 (Homo sapiens (Human), UniProt Q9NR96). The assay is described as follows: Human PBMC cell-based assay, TLR9. To be noted: CpG ODN 2216 at 1 μM, overnight, cytokine readout, read-out: hPBMC/TLR9 IC50. The text has this: Unlike the HEK reporter cell lines, human peripheral blood mononuclear cell (PBMC) represents primary human immune cells in blood mainly consisting of lymphocytes, monocytes, and dendritic cells. These cells express TLR7, TLR8, or TLR9, and therefore are natural responders to respective ligand stimulation. Upon activation of these TLRs, PBMCs secrete similar cytokines and chemokines in vitro and in vivo, and therefore the in vitro potency of a TLR7/8/9 antagonist in human PBMC is readily translatable to its pharmacodynamics response in vivo.
Chain of TLR9 (Q9NR96 26-1032): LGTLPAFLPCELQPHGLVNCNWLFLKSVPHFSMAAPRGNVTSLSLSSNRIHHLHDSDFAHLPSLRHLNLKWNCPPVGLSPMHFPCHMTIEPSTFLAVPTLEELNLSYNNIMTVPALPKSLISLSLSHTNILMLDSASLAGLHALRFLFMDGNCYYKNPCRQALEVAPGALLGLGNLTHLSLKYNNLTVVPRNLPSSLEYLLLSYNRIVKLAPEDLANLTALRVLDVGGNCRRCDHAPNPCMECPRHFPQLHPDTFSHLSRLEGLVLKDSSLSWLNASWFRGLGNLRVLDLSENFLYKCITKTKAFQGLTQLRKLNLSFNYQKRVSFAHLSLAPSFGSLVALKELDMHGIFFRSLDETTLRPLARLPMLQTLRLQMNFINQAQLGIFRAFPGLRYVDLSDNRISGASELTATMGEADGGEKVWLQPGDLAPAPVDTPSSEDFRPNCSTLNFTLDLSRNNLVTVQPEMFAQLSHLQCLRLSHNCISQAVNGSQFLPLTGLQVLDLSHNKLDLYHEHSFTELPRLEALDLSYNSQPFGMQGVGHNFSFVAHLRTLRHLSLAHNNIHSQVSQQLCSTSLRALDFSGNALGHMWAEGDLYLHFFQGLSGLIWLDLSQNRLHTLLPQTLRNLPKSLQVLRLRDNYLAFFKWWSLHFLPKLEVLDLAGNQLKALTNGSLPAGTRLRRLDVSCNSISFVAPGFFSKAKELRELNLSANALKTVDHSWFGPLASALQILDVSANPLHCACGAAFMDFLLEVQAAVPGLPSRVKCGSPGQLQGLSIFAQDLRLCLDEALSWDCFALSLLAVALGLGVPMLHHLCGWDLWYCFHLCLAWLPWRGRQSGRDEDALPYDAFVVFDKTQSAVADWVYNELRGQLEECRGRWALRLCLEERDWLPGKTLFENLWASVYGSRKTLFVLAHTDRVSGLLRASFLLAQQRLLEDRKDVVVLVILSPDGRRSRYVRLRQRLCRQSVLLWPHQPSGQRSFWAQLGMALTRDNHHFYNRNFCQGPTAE
Human peripheral blood mononuclear cells (PBMC) were isolated from freshly-drawn lithium-heparinized (Lithium Heparin Plus blood Collection tube, BD Vacutainer®) healthy donor whole blood by density gradient (Ficoll-Paque™ PLUS, GE Healthcare life Sciences). Briefly, […] was diluted with 25 mL PBS (without Ca^2+, Mg^2+) in a 50 mL conical tube with porous barrier (Leucosep tube, Greiner bio-one), where 15.5 mL Ficoll-Paque was under laid after spinning. Tubes were centrifuged for 20 minutes at 800×g (1946 rpm) with the brake in the off position, and PBMC were collected from the buffy coat. Cells were then washed twice in PBS, and red blood cells were lysed by suspension in 2 mL (Red Blood Cell Lysis Buffer, Alfa Aesar) for 5-10 minutes at room temperature. After a final wash in PBS, PBMC were resuspended at a final concentration of 2×10^6 cells/mL in RPMI-1640 media with GlutaMAX™ (Gibco) supplemented with 10% Fetal Bovine Serum (Sigma) and plated at 150 μL/well (3×10^5 cells/well) in tissue culture treated round bottom 96-well plates (Corning Incorporated). Antagonist compounds (compounds of this invention) solubilized and serial diluted in 100% DMSO were added in duplicate to cells to yield a final concentration of 1% DMSO (v/v). PBMC were incubated with antagonist compounds for 30 minutes at 37° C., 5% CO2 before adding various TLR agonist reagents in 48 μL complete media per well as follows (final concentrations indicated): CpG ODN 2216 (InvivoGen) at 1 μM for TLR9, ORN 06/LyoVec (InvivoGen) at 1 μg/mL for TLR8 and R848 (InvivoGen) at 1 μg/mL for TLR7 and TLR8. PBMC were incubated overnight at 37° C. with 5% CO2. Cell culture supernatants were collected, and levels of various human cytokines were assessed by Luminex assay (ProcartaPlex™ Multiplex Immunoassay, Invitrogen) or ELISA procedure according to the manufacturer's recommended protocol (eBioscience, ThermoFisher Scientific). Viability of the cells was also checked with Cell Viability Assay (CellTiter Glo®Luminescent Cell Viability Assay, Promega).

With `COc1nc(N2CCC(N3CCNCC3)CC2)ccc1-c1cc(C)c2nccn2c1` [Example 25, 6-[2-methoxy-6-(4-piperazin-1-yl-1-piperidyl)-3-pyridyl]-8-methyl-imidazo[1,2-a]pyridine], the IC50 stood at 0.0069 µM in assay [1], 0.0112 µM in assay [2] and 0.13 µM in assay [3].
